In brackets after ≈: the same amount, converted by molar mass.
Columns and labels:
Assay type in all cases: cell-based
[1] = test system: Staphylococcus aureus 1086; experiment: MIC, standard microdilution technique
Method in brief: (§1)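 Susceptibility testing used the NCCLS fifth-edition approved standard for aerobic organisms (M7-A5).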

[2] = test system: Streptococcus pneumoniae ¼; experiment: MIC, standard microdilution technique
Method in brief: as §1

[3] = test system: Streptococcus pneumoniae 12288; experiment: MIC, standard microdilution technique
Method in brief: as §1

[4] = test system: Streptococcus pneumoniae l/l; experiment: MIC, standard microdilution technique
Method in brief: as §1

[5] = test system: Staphylococcus aureus 745; experiment: MIC, standard microdilution technique
Method in brief: as §1

[6] = test system: Staphylococcus aureus ATCC 29213; experiment: MIC, standard microdilution technique
Method in brief: as §1

[7] = test system: Streptococcus pneumoniae SL199T; experiment: MIC, standard microdilution technique
Method in brief: as §1

[8] = test system: Escherichia coli ATCC 25922; experiment: MIC, standard microdilution technique
Method in brief: as §1

[9] = test system: Haemophilus influenzae B1501; experiment: MIC, standard agar dilution method using HTM medium
Method in brief: (§2)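 The reported MIC comes from dilution testing done to NCCLS guidance M7-A5. Organism: Haemophilus influenzae.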

[10] = test system: Haemophilus influenzae QK12/87; experiment: as above
Method in brief: as §2

[11] = test system: Haemophilus influenzae 12214; experiment: as above
Method in brief: as §2

[12] = test system: Haemophilus influenzae QK50; experiment: as above
Method in brief: as §2

Row | Structure (SMILES) | minimum inhibitory concentration (MIC), Strain B [1] | minimum inhibitory concentration (MIC), Strain F [2] [mg/L] | minimum inhibitory concentration (MIC), Strain H [3] [mg/L] | minimum inhibitory concentration (MIC), Strain E [4] | minimum inhibitory concentration (MIC), Strain C [5] [mg/L] | minimum inhibitory concentration (MIC), Strain A [6] | minimum inhibitory concentration (MIC), Strain G [7] [mg/L] | minimum inhibitory concentration (MIC), Strain D [8] [mg/L] | minimum inhibitory concentration (MIC), Strain M [9] [mg/L] | minimum inhibitory concentration (MIC), Strain I [10] [mg/L] | minimum inhibitory concentration (MIC), Strain K [11] [mg/L] | minimum inhibitory concentration (MIC), Strain L [12] [mg/L]
1 | CC[C@H]1OC(=O)[C@@](C)(F)C(=O)[C@H](C)[C@@H](O[C@@H]2O[C@H](C)C[C@H](N(C)C)[C@H]2O)[C@](C)(OC)C[C@@H](C)C(=O)[C@H](C)[C@H]2[C@@H](S(=O)(=O)CCCn3cc(-c4ccccc4)cn3)C(=O)O[C@@]21C [Example 11] | <=0.06 μg/ml | 0.25 (≈ 0.285 µM) | 16 (≈ 18.2 µM) | <=0.06 μg/ml | >32 | 0.125 mg/L (≈ 0.142 µM) | 4 (≈ 4.56 µM) | >32 | 4 (≈ 4.56 µM) | 8 (≈ 9.11 µM) | 8 (≈ 9.11 µM) | 4 (≈ 4.56 µM)
2 | CC[C@H]1OC(=O)[C@H](C)C(=O)[C@H](C)[C@@H](O[C@@H]2O[C@H](C)C[C@H](N(C)C)[C@H]2O)[C@](C)(OC)C[C@@H](C)C(=O)[C@H](C)[C@H]2[C@@H](SCC(=O)c3ccc(N(CC)CC)cc3)C(=O)O[C@@]21C [Example 17] | 8 mg/L (≈ 9.6 µM) | >32 | >32 | 1 mg/L (≈ 1.2 µM) | >32 | 16 mg/L (≈ 19.2 µM) | >32 | >32 | >32 | >32 | >32 | >32
3 | CC[C@H]1OC(=O)[C@H](C)C(=O)[C@H](C)[C@@H](O[C@@H]2O[C@H](C)C[C@H](N(C)C)[C@H]2O)[C@](C)(OC)C[C@@H](C)C(=O)[C@H](C)[C@H]2[C@@H](SCC(=O)N3CCc4ccccc43)C(=O)O[C@@]21C [Example 18] | 0.25 mg/L (≈ 0.311 µM) | 2 (≈ 2.49 µM) | >32 | <=0.06 μg/ml | >32 | 0.25 mg/L (≈ 0.311 µM) | 16 (≈ 19.9 µM) | >32 | 8 (≈ 9.96 µM) | 8 (≈ 9.96 µM) | 8 (≈ 9.96 µM) | 8 (≈ 9.96 µM)
4 | CC[C@H]1OC(=O)[C@H](C)C(=O)[C@H](C)[C@@H](O[C@@H]2O[C@H](C)C[C@H](N(C)C)[C@H]2O)[C@](C)(OC)C[C@@H](C)C(=O)[C@H](C)[C@H]2[C@@H](SCCS(=O)(=O)NCc3ccccc3)C(=O)O[C@@]21C [Example 24] | 1 mg/L (≈ 1.19 µM) | >32 | >32 | <=0.06 μg/ml | >32 | 2 mg/L (≈ 2.38 µM) | 32 (≈ 38 µM) | >32 | 32 (≈ 38 µM) | 32 (≈ 38 µM) | >32 | >32
5 | CC[C@H]1OC(=O)[C@H](C)C(=O)[C@H](C)[C@@H](O[C@@H]2O[C@H](C)C[C@H](N(C)C)[C@H]2O)[C@](C)(OC)C[C@@H](C)C(=O)[C@H](C)[C@H]2[C@@H](SCCNS(=O)(=O)c3cccc4c(N(C)C)cccc34)C(=O)O[C@@]21C [Example 28] | 1 mg/L (≈ 1.09 µM) | 32 (≈ 34.8 µM) | >32 | <=0.06 μg/ml | >32 | 1 mg/L (≈ 1.09 µM) | 16 (≈ 17.4 µM) | >32 | >32 | 32 (≈ 34.8 µM) | >32 | 32 (≈ 34.8 µM)
6 | CC[C@H]1OC(=O)[C@H](C)C(=O)[C@H](C)[C@@H](O[C@@H]2O[C@H](C)C[C@H](N(C)C)[C@H]2O)[C@](C)(OC)C[C@@H](C)C(=O)[C@H](C)[C@H]2[C@@H](SCCNS(=O)(=O)c3cccc4cccnc34)C(=O)O[C@@]21C [Example 29] | <=0.06 μg/ml | >32 | >32 | <=0.06 μg/ml | >32 | <=0.06 μg/ml | 2 (≈ 2.28 µM) | >32 | 8 (≈ 9.11 µM) | 8 (≈ 9.11 µM) | 8 (≈ 9.11 µM) | 8 (≈ 9.11 µM)
7 | CC[C@H]1OC(=O)[C@H](C)C(=O)[C@H](C)[C@@H](O[C@@H]2O[C@H](C)C[C@H](N(C)C)[C@H]2O)[C@](C)(OC)C[C@@H](C)C(=O)[C@H](C)[C@H]2[C@@H](SCC(=O)Nc3cc(C)on3)C(=O)O[C@@]21C [Example 33] | 0.5 mg/L (≈ 0.639 µM) | >32 | >32 | <=0.06 μg/ml | >32 | 0.5 mg/L (≈ 0.639 µM) | 32 (≈ 40.9 µM) | >32 | 8 (≈ 10.2 µM) | 16 (≈ 20.5 µM) | 8 (≈ 10.2 µM) | 8 (≈ 10.2 µM)

The remaining lines, values ahead:

Row | minimum inhibitory concentration (MIC), Strain B [1] | minimum inhibitory concentration (MIC), Strain F [2] [mg/L] | minimum inhibitory concentration (MIC), Strain H [3] [mg/L] | minimum inhibitory concentration (MIC), Strain E [4] | minimum inhibitory concentration (MIC), Strain C [5] [mg/L] | minimum inhibitory concentration (MIC), Strain A [6] | minimum inhibitory concentration (MIC), Strain G [7] [mg/L] | minimum inhibitory concentration (MIC), Strain D [8] [mg/L] | minimum inhibitory concentration (MIC), Strain M [9] [mg/L] | minimum inhibitory concentration (MIC), Strain I [10] [mg/L] | minimum inhibitory concentration (MIC), Strain K [11] [mg/L] | minimum inhibitory concentration (MIC), Strain L [12] [mg/L] | Structure (SMILES)
8 | <=0.06 μg/ml | 32 (≈ 38.3 µM) | >32 | <=0.06 μg/ml | >32 | 0.125 mg/L (≈ 0.15 µM) | 16 (≈ 19.2 µM) | >32 | 8 (≈ 9.58 µM) | 16 (≈ 19.2 µM) | 16 (≈ 19.2 µM) | 16 (≈ 19.2 µM) | CC[C@H]1OC(=O)[C@H](C)C(=O)[C@H](C)[C@@H](O[C@@H]2O[C@H](C)C[C@H](N(C)C)[C@H]2O)[C@](C)(OC)C[C@@H](C)C(=O)[C@H](C)[C@H]2[C@@H](SCC(=O)NCc3ccc4c(c3)OCO4)C(=O)O[C@@]21C [Example 30]
9 | 0.25 mg/L (≈ 0.32 µM) | >32 | >32 | <=0.06 μg/ml | >32 | 0.5 mg/L (≈ 0.64 µM) | 32 (≈ 41 µM) | >32 | 8 (≈ 10.2 µM) | 8 (≈ 10.2 µM) | 8 (≈ 10.2 µM) | 8 (≈ 10.2 µM) | CC[C@H]1OC(=O)[C@H](C)C(=O)[C@H](C)[C@@H](O[C@@H]2O[C@H](C)C[C@H](N(C)C)[C@H]2O)[C@](C)(OC)C[C@@H](C)C(=O)[C@H](C)[C@H]2[C@@H](SCC(=O)NCc3ccco3)C(=O)O[C@@]21C [Example 31]
10 | 0.5 mg/L (≈ 0.59 µM) | 8 (≈ 9.43 µM) | >32 | <=0.06 μg/ml | >32 | 0.25 mg/L (≈ 0.295 µM) | >32 | >32 | 32 (≈ 37.7 µM) | 32 (≈ 37.7 µM) | >32 | >32 | CC[C@H]1OC(=O)[C@H](C)C(=O)[C@H](C)[C@@H](O[C@@H]2O[C@H](C)C[C@H](N(C)C)[C@H]2O)[C@](C)(OC)C[C@@H](C)C(=O)[C@H](C)[C@H]2[C@@H](SCC(=O)NCc3nc4ccccc4s3)C(=O)O[C@@]21C [Example 34]
